{"source": "patent US11089780B2", "about": "“Pendimethanlin microcapsules with a shell made of tetramethylxylylene diisocyanate and a polyamine with at least three amine groups” (BASF SE, priority 2015, dated 2021)", "origin": "cited, not measured here", "conditions": "at 25° C."}
{"smiles": "CCC(CC)Nc1c([N+](=O)[O-])cc(C)c(C)c1[N+](=O)[O-]", "note": "[Pendimethalin, 3,4-dimethyl-2,6-dinitro-N-pentan-3-yl-aniline]", "values": [{"measurement": "Vapor pressure", "result": "about 2 mPa"}]}
